PubChem BioAssay AID248 (DTP/NCI, 2004)
Several values for one entry are separate records, joined by “and”; a condition that tells them apart may be missing. Identical values can stand only once. Toxic doses and inconclusive results are not listed. Cut-off read from the data, not from the text of the source: active = T/C of 150% or more; inactive = T/C below 125%.

Test system: L1210 leukemia ip in BDF1 mice, survival T/C
Test: NCI In Vivo Anticancer Drug Screen. Data for tumor model L1210 Leukemia (intraperitoneal) in B6D2F1 (BDF1) mice
Settings: endpoint: mean survival time, higher = longer survival
Procedure, shortened: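 Each compound was tested against a transplantable tumor grown in mice. The endpoint was survival, with treated animals benchmarked against vehicle controls as a simple ratio.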

[1] = dose: 100.0 mg/kg/injection, schedule: Q01DX001 (ip), vehicle: other
[2] = dose: 200.0 mg/kg/injection, schedule: Q01DX001 (ip), vehicle: other
[3] = dose: 100.0 mg/kg/injection, schedule: Q01DX009 (ip), vehicle: Klucel (hydroxypropylcellulose) (HPC)
[4] = dose: 100.0 mg/kg/injection, schedule: Q04DX003 (ip), vehicle: saline
[5] = dose: 200.0 mg/kg/injection, schedule: Q04DX003 (ip), vehicle: saline
[6] = dose: 100.0 mg/kg/injection, schedule: Q01DX001 (ip), vehicle: saline with Tween-80
[7] = dose: 200.0 mg/kg/injection, schedule: Q01DX001 (ip), vehicle: saline with Tween-80
[8] = dose: 400.0 mg/kg/injection, schedule: Q01DX009 (ip), vehicle: Klucel (hydroxypropylcellulose) (HPC)
[9] = dose: 100.0 mg/kg/injection, schedule: Q01DX001 (ip), vehicle: saline
[10] = dose: 200.0 mg/kg/injection, schedule: Q01DX001 (ip), vehicle: saline
[11] = dose: 400.0 mg/kg/injection, schedule: Q01DX001 (ip), vehicle: saline
[12] = dose: 100.0 mg/kg/injection, schedule: Q01DX001 (ip), vehicle: carboxymethylcellulose (CMC)
[13] = dose: 200.0 mg/kg/injection, schedule: Q01DX001 (ip), vehicle: carboxymethylcellulose (CMC)
[14] = dose: 400.0 mg/kg/injection, schedule: Q01DX001 (ip), vehicle: carboxymethylcellulose (CMC)

Measured: T/C

O=[N+]([O-])c1ccc(CCc2ccc([N+](=O)[O-])cc2)cc1
inactive: dose: 50.0 mg/kg/injection, schedule: Q01DX001 (ip), vehicle: other 91 % of control | [1] 95 % of control | [2] 97 % of control | dose: 400.0 mg/kg/injection, schedule: Q01DX001 (ip), vehicle: other 95 % of control

CC(C)Cc1ccccn1
inactive: dose: 25.0 mg/kg/injection, schedule: Q01DX009 (ip), vehicle: Klucel (hydroxypropylcellulose) (HPC) 96 % of control | dose: 50.0 mg/kg/injection, schedule: Q01DX009 (ip), vehicle: Klucel (hydroxypropylcellulose) (HPC) 98 % of control | [3] 91 % of control

O=c1[nH]c2c(cc1Br)C(Br)C(Br)C=C2 (stereo unspecified)
inactive: [1] 105 % of control | [2] 108 % of control

COC(=O)c1ccccc1N=NNc1ccc2c(=O)c3ccccc3[nH]c2c1
inactive: [4] 95 % of control | [5] 86 % of control | dose: 400.0 mg/kg/injection, schedule: Q04DX003 (ip), vehicle: saline 86 % of control

BrCCCCOCBr
inactive: dose: 50.0 mg/kg/injection, schedule: Q01DX009 (ip), vehicle: saline with Tween-80 97 % of control | dose: 100.0 mg/kg/injection, schedule: Q01DX009 (ip), vehicle: saline with Tween-80 101 % of control | dose: 200.0 mg/kg/injection, schedule: Q01DX009 (ip), vehicle: saline with Tween-80 106 % of control

Brc1ccc2[nH]c3c(c2c1)CSCC3
inactive: [6] 95 % of control | [7] 111 % of control | dose: 400.0 mg/kg/injection, schedule: Q01DX001 (ip), vehicle: saline with Tween-80 108 % of control

CCOC1=C(Cl)C(=O)C(OCC)=C(Cl)C1=O
inactive: dose: 4.0 mg/kg/injection, schedule: Q04DX003 (ip), vehicle: DMSO 98 % of control | dose: 6.0 mg/kg/injection, schedule: Q04DX003 (ip), vehicle: DMSO 98 % of control | dose: 9.0 mg/kg/injection, schedule: Q04DX003 (ip), vehicle: DMSO 96 % of control and 86 % of control | dose: 75.0 mg/kg/injection, schedule: Q01DX001 (ip), vehicle: alcohol 92 % of control | dose: 150.0 mg/kg/injection, schedule: Q01DX001 (ip), vehicle: alcohol 97 % of control

CC(=O)N(NC(=O)c1cccnc1)C(C)=O
inactive: dose: 3.75 mg/kg/injection, schedule: Q01DX015 (oral), vehicle: carboxymethylcellulose (CMC) 101 % of control | dose: 7.5 mg/kg/injection, schedule: Q01DX015 (oral), vehicle: carboxymethylcellulose (CMC) 100 % of control | dose: 15.0 mg/kg/injection, schedule: Q01DX015 (oral), vehicle: carboxymethylcellulose (CMC) 100 % of control | dose: 30.0 mg/kg/injection, schedule: Q01DX015 (oral), vehicle: carboxymethylcellulose (CMC) 106 % of control | dose: 62.0 mg/kg/injection, schedule: Q01DX Z (oral), vehicle: carboxymethylcellulose (CMC) 91 % of control | dose: 125.0 mg/kg/injection, schedule: Q01DX Z (oral), vehicle: carboxymethylcellulose (CMC) 91 % of control | dose: 250.0 mg/kg/injection, schedule: Q01DX Z (oral), vehicle: carboxymethylcellulose (CMC) 95 % of control

COc1cc(/C=c2\[nH]c(=O)/c(=C/c3cc(OC)c(OC)c(OC)c3)[nH]c2=O)cc(OC)c1OC
inactive: [3] 86 % of control | dose: 100.0 mg/kg/injection, schedule: Q04DX003 (ip), vehicle: Klucel (hydroxypropylcellulose) (HPC) 93 % of control | dose: 200.0 mg/kg/injection, schedule: Q04DX003 (ip), vehicle: Klucel (hydroxypropylcellulose) (HPC) 93 % of control | [8] 87 % of control | dose: 400.0 mg/kg/injection, schedule: Q04DX003 (ip), vehicle: Klucel (hydroxypropylcellulose) (HPC) 88 % of control

CCOC(Nc1ccc(Cl)c(Cl)c1)C(=O)c1ccccc1 (stereo unspecified)
inactive: [9] 105 % of control | [10] 105 % of control | [11] 96 % of control

COC(=O)CCC(=O)N1CCOCC1
inactive: dose: 100.0 mg/kg/injection, schedule: Q04DX003 (ip), vehicle: saline with Tween-80 88 % of control | dose: 200.0 mg/kg/injection, schedule: Q04DX003 (ip), vehicle: saline with Tween-80 90 % of control | dose: 400.0 mg/kg/injection, schedule: Q04DX003 (ip), vehicle: saline with Tween-80 88 % of control

CC(=O)Oc1c2n(c(=O)c3cocc13)Cc1cc3ccccc3nc1-2
inactive: dose: 100.0 mg/kg/injection, schedule: Q01DX001 (ip), vehicle: Klucel (hydroxypropylcellulose) (HPC) 92 % of control | dose: 200.0 mg/kg/injection, schedule: Q01DX001 (ip), vehicle: Klucel (hydroxypropylcellulose) (HPC) 94 % of control | dose: 400.0 mg/kg/injection, schedule: Q01DX001 (ip), vehicle: Klucel (hydroxypropylcellulose) (HPC) 90 % of control

CCc1ccc(N=Nc2ccc(-c3ccc(NC(C)=O)cc3)cc2)cc1
inactive: [12] 94 % of control | [13] 102 % of control | [14] 105 % of control

NC1CC2CCC1C2 (stereo unspecified)
inactive: dose: 50.0 mg/kg/injection, schedule: Q01DX001 (ip), vehicle: saline with Tween-80 98 % of control | dose: 50.0 mg/kg/injection, schedule: Q04DX002 (ip), vehicle: saline 93 % of control | [6] 98 % of control | dose: 100.0 mg/kg/injection, schedule: Q04DX002 (ip), vehicle: saline 100 % of control | [7] 103 % of control

NC(Cc1c[nH]c2ccc(O)cc12)C(=O)O (stereo unspecified)
inactive: [12] 95 % of control | [13] 102 % of control | [14] 100 % of control

CNc1cccc([N+](=O)[O-])c1
inactive: [9] 95 % of control | [10] 103 % of control

OC1C2CCC(CC2)C1O (stereo unspecified)
inactive: dose: 4.5 mg/kg/injection, schedule: Q01DX009 (ip), vehicle: saline with Tween-80 92 % of control | dose: 4.5 mg/kg/injection, schedule: Q04DX003 (ip), vehicle: other 108 % of control | dose: 9.0 mg/kg/injection, schedule: Q01DX009 (ip), vehicle: saline with Tween-80 92 % of control | dose: 9.0 mg/kg/injection, schedule: Q04DX003 (ip), vehicle: other 101 % of control | dose: 9.75 mg/kg/injection, schedule: Q01DX001 (ip), vehicle: other 104 % of control | dose: 18.0 mg/kg/injection, schedule: Q01DX009 (ip), vehicle: saline with Tween-80 86 % of control | dose: 18.0 mg/kg/injection, schedule: Q04DX003 (ip), vehicle: other 106 % of control | dose: 18.5 mg/kg/injection, schedule: Q01DX001 (ip), vehicle: other 107 % of control

O=C(O)/C=C\C(=O)Nc1ccccc1Cl
inactive: [3] 102 % of control | dose: 200.0 mg/kg/injection, schedule: Q01DX009 (ip), vehicle: Klucel (hydroxypropylcellulose) (HPC) 100 % of control | [8] 97 % of control

COC1=CCC23C(=O)C=CC(=O)C2(C1)C(=O)c1ccccc1C3=O (stereo unspecified)
inactive: dose: 3.12 mg/kg/injection, schedule: Q01DX005 (ip), vehicle: saline with Tween-80 110 % of control | dose: 6.25 mg/kg/injection, schedule: Q01DX005 (ip), vehicle: saline with Tween-80 103 % of control | dose: 12.5 mg/kg/injection, schedule: Q01DX005 (ip), vehicle: saline with Tween-80 97 % of control

CCN(CC)C(C)COC(=O)c1cc(=O)n(C)c2ccccc12 (stereo unspecified)
inactive: dose: 50.0 mg/kg/injection, schedule: Q01DX009 (ip), vehicle: saline 101 % of control | dose: 100.0 mg/kg/injection, schedule: Q01DX009 (ip), vehicle: saline 98 % of control | [4] 95 % of control | dose: 200.0 mg/kg/injection, schedule: Q01DX009 (ip), vehicle: saline 89 % of control | [5] 97 % of control

ClC1=C(Cl)C2(Cl)C(Cl)CC1(Cl)C2(Cl)Cl (stereo unspecified)
inactive: [9] 97 % of control | [4] 110 % of control | [10] 90 % of control | [5] 96 % of control | [11] 97 % of control

CC(=O)Nc1ccc(S(=O)(=O)Nc2cc(C)c(C)cc2C)cc1
inactive: dose: 100.0 mg/kg/injection, schedule: Q04DX002 (ip), vehicle: Klucel (hydroxypropylcellulose) (HPC) 103 % of control | dose: 200.0 mg/kg/injection, schedule: Q04DX002 (ip), vehicle: Klucel (hydroxypropylcellulose) (HPC) 91 % of control

O=C1CC2(C(=O)N1c1ccccc1)C1C(=O)N(c3ccccc3)C(=O)C1C1C3C(=CCC4C(=O)N(c5ccccc5)C(=O)C43)C=CN12 (stereo unspecified)
inactive: dose: 100.0 mg/kg/injection, schedule: Q04DX002 (ip), vehicle: saline with Tween-80 105 % of control | dose: 200.0 mg/kg/injection, schedule: Q04DX002 (ip), vehicle: saline with Tween-80 98 % of control | dose: 400.0 mg/kg/injection, schedule: Q04DX002 (ip), vehicle: saline with Tween-80 102 % of control
